In US20210369853A1, “TARGETED PROTEASE DEGRADATION PLATFORM” (EUBULUS BIOTHERAPEUTICS INC., priority 2018, published 2021):

Tested on: Human Monocytic Leukemia MV4-11
Assay: Cell proliferation experiment (Alarm blue, 72 h, EC50)
Format: cell-based
Settings: Homo sapiens, MV4-11, MV4;11 cells
Description: (2.1) Cell Proliferation Experiment:
Reagents: RPMI-1640 medium, McCoy's 5A medium, IMDM medium, MEM medium, L-15 medium, fetal bovine serum, Penicillin-Streptomycin double antibody, trypsin, etc., 2-mercaptoethanol, NEAA, pyruvate, etc.
The cells were cultured in conventional ways, and the cells should be passed at least for at least 2 generations before plating. Cells at the logarithmic growth phase are collected, prepared into single cell suspensions and counted. The concentration of cells was adjusted to the desired concentration, and cells were inoculated into a 96-well cell culture plate at 100 μl per well. 100 μL of complete medium of the test compound were added to each well, set up 2 duplicates for each concentration, and diluted with a 5-fold gradient, and continue to culture for 72 h. All cells were subjected to EC50 test for corresponding samples.
The fluorescence intensity of each well was detected using the Alarm blue method, and EC50 was calculated.
EC50 was calculated according to the following formula:
Y=Max+(Min−Max)/[1+(X/EC50)×Slope]
wherein Min, Max and Slope represent the minimum, maximum and slope respectively.

Cc1ncsc1-c1ccc(CNC(=O)[C@@H]2C[C@@H](O)CN2C(=O)[C@@H](NC(=O)CCCNC(=O)c2ccc(Nc3ncc4c(n3)-c3ccc(Cl)cc3C(c3c(F)cccc3F)=NC4)cc2)C(C)(C)C)cc1 [UB-180505]
EC50: 100 to 1000 nM

Cc1ncsc1-c1ccc(CNC(=O)[C@@H]2C[C@@H](O)CN2C(=O)[C@@H](NC(=O)COCCCNC(=O)c2ccc(Nc3ncc4c(n3)-c3ccc(Cl)cc3C(c3c(F)cccc3F)=NC4)cc2)C(C)(C)C)cc1 [UB-180506]
EC50: 100 to 1000 nM

Cc1ncsc1-c1ccc(CNC(=O)[C@@H]2C[C@@H](O)CN2C(=O)[C@@H](NC(=O)COCCOCCOCCNC(=O)c2ccc(Nc3ncc4c(n3)-c3ccc(Cl)cc3C(c3c(F)cccc3F)=NC4)cc2)C(C)(C)C)cc1 [UB-180514]
EC50: 10 to 100 nM

Cc1ncsc1-c1ccc(CNC(=O)[C@@H]2C[C@@H](O)CN2C(=O)[C@@H](NC(=O)COCCOCCOCCOCCNC(=O)c2ccc(Nc3ncc4c(n3)-c3ccc(Cl)cc3C(c3c(F)cccc3F)=NC4)cc2)C(C)(C)C)cc1 [UB-180527]
EC50: > 1000 nM

Cc1ncsc1-c1ccc(CNC(=O)[C@@H]2C[C@@H](O)CN2C(=O)[C@@H](NC(=O)CCOCCOCCOCCOCCNC(=O)c2ccc(Nc3ncc4c(n3)-c3ccc(Cl)cc3C(c3c(F)cccc3F)=NC4)cc2)C(C)(C)C)cc1 [UB-180531]
EC50: 10 to 100 nM

Cc1ncsc1-c1ccc(CNC(=O)[C@@H]2C[C@@H](O)CN2C(=O)[C@@H](NC(=O)COCCNC(=O)c2ccc(Nc3ncc4c(n3)-c3ccc(Cl)cc3C(c3c(F)cccc3F)=NC4)cc2)C(C)(C)C)cc1 [UB-180532]
EC50: 100 to 1000 nM

Cc1ncsc1-c1ccc(CNC(=O)[C@@H]2C[C@@H](O)CN2C(=O)[C@@H](NC(=O)COCCOCCNC(=O)c2ccc(Nc3ncc4c(n3)-c3ccc(Cl)cc3C(c3c(F)cccc3F)=NC4)cc2)C(C)(C)C)cc1 [UB-180533]
EC50: 100 to 1000 nM

Cc1ncsc1-c1ccc(CNC(=O)[C@@H]2C[C@@H](O)CN2C(=O)[C@@H](NC(=O)CCOCCOCCNC(=O)c2ccc(Nc3ncc4c(n3)-c3ccc(Cl)cc3C(c3c(F)cccc3F)=NC4)cc2)C(C)(C)C)cc1 [UB-180536]
EC50: 100 to 1000 nM

Cc1ncsc1-c1ccc(CNC(=O)[C@@H]2C[C@@H](O)CN2C(=O)[C@@H](NC(=O)COCCCCNC(=O)c2ccc(Nc3ncc4c(n3)-c3ccc(Cl)cc3C(c3c(F)cccc3F)=NC4)cc2)C(C)(C)C)cc1 [UB-180558]
EC50: 100 to 1000 nM

CC[C@@H]1C(=O)N(C)c2cnc(Nc3ccc(C(=O)NCCOCCOCCNc4cccc5c4CN(C4CCC(=O)NC4=O)C5=O)cc3OC)nc2N1Cc1ccc(Br)cc1 (stereo partly shown) [UB-180568]
EC50: 10 to 100 nM

CC[C@@H]1C(=O)N(C)c2cnc(Nc3ccc(C(=O)NCCOCCOCCOCCNc4cccc5c4CN(C4CCC(=O)NC4=O)C5=O)cc3OC)nc2N1Cc1ccc(Br)cc1 (stereo partly shown) [UB-180569]
EC50: 10 to 100 nM

CC[C@@H]1C(=O)N(C)c2cnc(Nc3ccc(C(=O)NCC(=O)Nc4cccc5c4CN(C4CCC(=O)NC4=O)C5=O)cc3OC)nc2N1C1CCCC1 (stereo partly shown) [UB-180570]
EC50: > 1000 nM

CC[C@@H]1C(=O)N(C)c2cnc(Nc3ccc(C(=O)NC4(C(=O)Nc5cccc6c5CN(C5CCC(=O)NC5=O)C6=O)CC4)cc3OC)nc2N1C1CCCC1 (stereo partly shown) [UB-180571]
EC50: 100 to 1000 nM

Cc1ncsc1-c1ccc(CNC(=O)[C@@H]2C[C@@H](O)CN2C(=O)[C@@H](NC(=O)CCOCCOCCOCCOCCNC(=O)[C@]2(Cc3cccc(Nc4nccs4)n3)CC[C@@H](Oc3cccc(Cl)c3F)CC2)C(C)(C)C)cc1 [UB-180576]
EC50: 100 to 1000 nM

Cc1ncsc1-c1ccc(CNC(=O)[C@@H]2C[C@@H](O)CN2C(=O)[C@@H](NC(=O)COCCNC(=O)[C@]2(Cc3cccc(Nc4nccs4)n3)CC[C@@H](Oc3cccc(Cl)c3F)CC2)C(C)(C)C)cc1 [UB-180578]
EC50: > 1000 nM

Cc1ncsc1-c1ccc(CNC(=O)[C@@H]2C[C@@H](O)CN2C(=O)[C@@H](NC(=O)COCCOCCOCCOCCNC(=O)[C@]2(Cc3cccc(Nc4nccs4)n3)CC[C@@H](Oc3cccc(Cl)c3F)CC2)C(C)(C)C)cc1 [UB-180580]
EC50: 100 to 1000 nM

Cc1ncsc1-c1ccc(CNC(=O)[C@@H]2C[C@@H](O)CN2C(=O)[C@@H](NC(=O)CCCNC(=O)[C@]2(Cc3cccc(Nc4nccs4)n3)CC[C@@H](Oc3cccc(Cl)c3F)CC2)C(C)(C)C)cc1 [UB-180583]
EC50: 100 to 1000 nM

Cc1ncsc1-c1ccc(CNC(=O)[C@@H]2C[C@@H](O)CN2C(=O)[C@@H](NC(=O)COCCOCCOCCNC(=O)[C@]2(Cc3cccc(Nc4nccs4)n3)CC[C@@H](Oc3cccc(Cl)c3F)CC2)C(C)(C)C)cc1 [UB-180584]
EC50: 100 to 1000 nM

Cc1ncsc1-c1ccc(CNC(=O)[C@@H]2C[C@@H](O)CN2C(=O)[C@@H](NC(=O)COCCCNC(=O)[C@]2(Cc3cccc(Nc4nccs4)n3)CC[C@@H](Oc3cccc(Cl)c3F)CC2)C(C)(C)C)cc1 [UB-180585]
EC50: > 1000 nM

Cc1ncsc1-c1ccc(CNC(=O)[C@@H]2C[C@@H](O)CN2C(=O)[C@@H](NC(=O)COCCOCCNC(=O)[C@]2(Cc3cccc(Nc4nccs4)n3)CC[C@@H](Oc3cccc(Cl)c3F)CC2)C(C)(C)C)cc1 [UB-180587]
EC50: > 1000 nM

Cc1ncsc1-c1ccc(CNC(=O)[C@@H]2C[C@@H](O)CN2C(=O)[C@@H](NC(=O)COCCCCNC(=O)[C@]2(Cc3cccc(Nc4nccs4)n3)CC[C@@H](Oc3cccc(Cl)c3F)CC2)C(C)(C)C)cc1 [UB-180589]
EC50: > 1000 nM

CC[C@@H]1c2c(C#N)ncn2-c2cnc(Nc3ccc(C(=O)NC4CCN(CCCCC(=O)N[C@H](C(=O)N5C[C@H](O)C[C@H]5C(=O)NCc5ccc(-c6scnc6C)cc5)C(C)(C)C)CC4)cc3OC)nc2N1C1CCCC1 [UB-180591]
EC50: 100 to 1000 nM

CC[C@@H]1c2c(C#N)ncn2-c2cnc(Nc3ccc(C(=O)NCC(=O)N[C@H](C(=O)N4C[C@H](O)C[C@H]4C(=O)NCc4ccc(-c5scnc5C)cc4)C(C)(C)C)cc3OC)nc2N1C1CCCC1 [UB-180592]
EC50: 100 to 1000 nM

CC[C@@H]1c2c(C#N)ncn2-c2cnc(Nc3ccc(C(=O)NCCCNc4cccc5c4C(=O)N(C4CCC(=O)NC4=O)C5=O)cc3OC)nc2N1C1CCCC1 (stereo partly shown) [UB-180593]
EC50: 100 to 1000 nM

CC[C@@H]1C(=O)N(C)c2cnc(Nc3ccc(C(=O)NC4CCN(CCCCC(=O)Nc5cccc6c5CN(C5CCC(=O)NC5=O)C6=O)CC4)cc3OC)nc2N1C1CCCC1 (stereo partly shown) [UB-180596]
EC50: 10 to 100 nM

CC[C@@H]1c2c(C#N)ncn2-c2cnc(Nc3ccc(C(=O)NC4CCN(CCCCCOCC(=O)N[C@H](C(=O)N5C[C@H](O)C[C@H]5C(=O)NCc5ccc(-c6scnc6C)cc5)C(C)(C)C)CC4)cc3OC)nc2N1C1CCCC1 [UB-180597]
EC50: > 1000 nM

Cc1ncsc1-c1ccc(CNC(=O)[C@@H]2C[C@@H](O)CN2C(=O)[C@@H](NC(=O)CCOCCOCCNC(=O)[C@]2(Cc3cccc(Nc4nccs4)n3)CC[C@@H](Oc3cccc(Cl)c3F)CC2)C(C)(C)C)cc1 [UB-180599]
EC50: > 1000 nM

Cc1ncsc1-c1ccc(CNC(=O)[C@@H]2C[C@@H](O)CN2C(=O)[C@@H](NC(=O)CCOCCCOCCOCCNC(=O)[C@]2(Cc3cccc(Nc4nccs4)n3)CC[C@@H](Oc3cccc(Cl)c3F)CC2)C(C)(C)C)cc1 [UB-180600]
EC50: 100 to 1000 nM

CC[C@@H]1c2c(C#N)ncn2-c2cnc(Nc3ccc(C(=O)NCCNc4cccc5c4C(=O)N(C4CCC(=O)NC4=O)C5=O)cc3OC)nc2N1C1CCCC1 (stereo partly shown) [UB-180607]
EC50: 10 to 100 nM

CC[C@@H]1c2c(C#N)ncn2-c2cnc(Nc3ccc(C(=O)NCCNc4cccc5c4CN(C4CCC(=O)NC4=O)C5=O)cc3OC)nc2N1C1CCCC1 (stereo partly shown) [UB-180608]
EC50: 100 to 1000 nM

Cc1ncsc1-c1ccc(CNC(=O)[C@@H]2C[C@@H](O)CN2C(=O)[C@@H](NC(=O)CCOCCCOCCOCCNC(=O)c2ccc(Nc3ncc4c(n3)-c3ccc(Cl)cc3C(c3c(F)cccc3F)=NC4)cc2)C(C)(C)C)cc1 [UB-180609]
EC50: 10 to 100 nM

Cc1ncsc1-c1ccc(CNC(=O)[C@@H]2C[C@@H](O)CN2C(=O)[C@@H](NC(=O)CCOCCOCCOCCNC(=O)[C@]2(Cc3cccc(Nc4nccs4)n3)CC[C@@H](Oc3cccc(Cl)c3F)CC2)C(C)(C)C)cc1 [UB-180612]
EC50: 100 to 1000 nM

Cc1ncsc1-c1ccc(CNC(=O)[C@@H]2C[C@@H](O)CN2C(=O)[C@@H](NC(=O)CCNC(=O)c2ccc(Nc3ncc4c(n3)-c3ccc(Cl)cc3C(c3c(F)cccc3F)=NC4)cc2)C(C)(C)C)cc1 [UB-180613]
EC50: 100 to 1000 nM

Cc1ncsc1-c1ccc(CNC(=O)[C@@H]2C[C@@H](O)CN2C(=O)[C@@H](NC(=O)CCNC(=O)[C@]2(Cc3cccc(Nc4nccs4)n3)CC[C@@H](Oc3cccc(Cl)c3F)CC2)C(C)(C)C)cc1 [UB-180614]
EC50: > 1000 nM

Cc1ncsc1-c1ccc(CNC(=O)[C@@H]2C[C@@H](O)CN2C(=O)[C@@H](NC(=O)CCOCCOCCOCCNC(=O)c2ccc(Nc3ncc4c(n3)-c3ccc(Cl)cc3C(c3c(F)cccc3F)=NC4)cc2)C(C)(C)C)cc1 [UB-180615]
EC50: 10 to 100 nM

CC[C@@H]1C(=O)N(C)c2cnc(Nc3ccc(C(=O)NCCC(=O)Nc4cccc5c4CN(C4CCC(=O)NC4=O)C5=O)cc3OC)nc2N1C1CCCC1 (stereo partly shown) [UB-180618]
EC50: > 1000 nM

CC[C@@H]1C(=O)N(C)c2cnc(Nc3ccc(C(=O)NCCOCCOCCNCCC(=O)N[C@H](C(=O)N4C[C@H](O)C[C@H]4C(=O)NCc4ccc(-c5scnc5C)cc4)C(C)(C)C)cc3OC)nc2N1C1CCCC1 [UB-180619]
EC50: > 1000 nM

CC[C@@H]1c2c(C#N)ncn2-c2cnc(Nc3ccc(C(=O)NCCC(=O)Nc4cccc5c4CN(C4CCC(=O)NC4=O)C5=O)cc3OC)nc2N1C1CCCC1 (stereo partly shown) [UB-180621]
EC50: > 1000 nM

CC[C@@H]1C(=O)N(C)c2cnc(Nc3ccc(C(=O)NCCC(=O)N[C@H](C(=O)N4C[C@H](O)C[C@H]4C(=O)NCc4ccc(-c5scnc5C)cc4)C(C)(C)C)cc3OC)nc2N1C1CCCC1 [UB-180622]
EC50: 10 to 100 nM

CC[C@@H]1c2c(C#N)ncn2-c2cnc(Nc3ccc(C(=O)NCCC(=O)N[C@H](C(=O)N4C[C@H](O)C[C@H]4C(=O)NCc4ccc(-c5scnc5C)cc4)C(C)(C)C)cc3OC)nc2N1C1CCCC1 [UB-180623]
EC50: > 1000 nM
